Data on five molecules can be found in patent US9771369B2, “Compounds and methods for kinase modulation, and indications therefor” (Plexxikon Inc., priority 2014, dated 2017).

Chain of c-kit mutant D816V (P10721 other isoform, or with tags, fused parts or gaps D816V/del 694-753): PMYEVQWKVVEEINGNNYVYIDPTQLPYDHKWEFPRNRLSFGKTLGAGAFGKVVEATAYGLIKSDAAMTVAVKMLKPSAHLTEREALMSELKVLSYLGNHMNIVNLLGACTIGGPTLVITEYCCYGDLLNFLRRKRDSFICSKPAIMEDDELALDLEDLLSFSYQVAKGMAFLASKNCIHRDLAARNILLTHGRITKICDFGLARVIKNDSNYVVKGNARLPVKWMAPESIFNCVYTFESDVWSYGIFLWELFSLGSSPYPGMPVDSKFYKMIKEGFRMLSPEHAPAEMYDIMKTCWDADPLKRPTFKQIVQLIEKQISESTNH

For the test, the target named is c-kit mutant D816V (Homo sapiens (Human), UniProt P10721, D816V/DEL694-753). The test is described as follows: c-Kit mutant D816V biochemical assay (AlphaScreen kinase activity). A digest of the protocol:
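Recombinant His-tagged c-Kit D816V kinase domain (residues 551-934, insert 694-753 deleted, E. coli-expressed) phosphorylating 30 nM biotin-(E4Y)10 with 10 μM ATP, HEPES pH 7.2, Mg/Mn, 5% DMSO; 30 min, room temperature. Phosphorylation detected by AlphaScreen (streptavidin donor/PY30 acceptor beads); IC50 from 8-point 1:3 series.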
(Bead proximity is the source of the signal in Alpha formats.)
In the case of `Cc1nc(C2(C)CCN(c3ncnc4[nH]c(-c5ccc(NS(C)(=O)=O)cc5)cc34)CC2)[nH]c1-c1ccc(C(F)F)cc1` [P-3252, N-[4-[4-[4-[5-[4-(difluoromethyl)phenyl]-4-methyl-1H-imidazol-2-yl]-4-methyl-1-piperidyl]-7H-pyrrolo[2,3-d]pyrimidin-6-yl]phenyl]methanesulfonamide], the IC50 (commonly the concentration that inhibits the measured activity by half) fell in the range of 0.0001 to 1 µM.
For the molecule `Cc1nc(C2(C)CCN(c3ncnc4[nH]c(-c5ccc(C(N)=O)cc5)cc34)CC2)[nH]c1-c1ccc(OC(F)F)cc1` [P-3253, 4-[4-[4-[5-[4-(difluoromethoxy)phenyl]-4-methyl-1H-imidazol-2-yl]-4-methyl-1-piperidyl]-7H-pyrrolo[2,3-d]pyrimidin-6-yl]benzamide], the IC50 is 0.0001 to 1 µM.
The figure for `Cc1nc(C2(C)CCN(c3ncnc4[nH]c(-c5ccc(NS(C)(=O)=O)cc5)cc34)CC2)[nH]c1-c1ccc(OC(F)F)cc1` [P-3254, N-[4-[4-[4-[5-[4-(difluoromethoxy)phenyl]-4-methyl-1H-imidazol-2-yl]-4-methyl-1-piperidyl]-7H-pyrrolo[2,3-d]pyrimidin-6-yl]phenyl]methanesulfonamide] is 0.0001 to 1 µM; for `Cc1nc(C2(C)CCN(c3ncnc4[nH]c(-c5ccc(C#N)nc5)cc34)CC2)[nH]c1-c1cccc(OC(F)F)c1` [P-3255, 5-[4-[4-[5-[3-(difluoromethoxy)phenyl]-4-methyl-1H-imidazol-2-yl]-4-methyl-1-piperidyl]-7H-pyrrolo[2,3-d]pyrimidin-6-yl]pyridine-2-carbonitrile] it is 0.0001 to 1 µM; for `COc1cccc(-c2[nH]c(C3(C)CCN(c4ncnc5[nH]c(-c6ccc(C#N)nc6)cc45)CC3)nc2C)c1` [P-3256, 5-[4-[4-[5-(3-methoxyphenyl)-4-methyl-1H-imidazol-2-yl]-4-methyl-1-piperidyl]-7H-pyrrolo[2,3-d]pyrimidin-6-yl]pyridine-2-carbonitrile] it is 0.0001 to 1 µM.
